# In US10517889B2, “Modulators of SMAD7 expression” (Ionis Pharmaceuticals, Inc., priority 2017, dated 2019):
# Strand notation (5' to 3'): a small letter for the sugar, then the base; units joined by * are phosphorothioate-linked, units joined directly phosphodiester-linked; [ ] holds rarer units or linkages, { } end groups; capitals alone tell only the bases. k = constrained ethyl (cEt); [5mC] = 5-methylcytosine; d = 2'-deoxy (DNA)
# Test system: human SMAD7 mRNA
# Assay: Antisense inhibition of human SMAD7 mRNA expression in Hep3B cells by 3-10-3 cEt gapmers, 10,000 nM, electroporation (Example 2)
# Format: cell-based
# Details: Hep3B cells, approximately 24 hours
# Summary of the method: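 Hep3B cells (20,000 per well) were electroporated with 10,000 nM 16-mer 3-10-3 cEt gapmer (phosphorothioate, 5-methylcytosine). After about 24 h, SMAD7 mRNA was quantified by qRT-PCR with primer probe set RTS5062, normalised to RIBOGREEN total RNA, and expressed as percent inhibition versus untreated cells.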
# [1] = electroporation with 10,000 nM antisense oligonucleotide, primer probe set RTS5062, relative to untreated control cells
# [2] = electroporation, 10,000 nM, 3-10-3 cEt gapmers targeting SEQ ID NO: 3 and 4
substance,measurement,setting,value
799191 (antisense kA*kT*kG*dA*dG*dA*dA*dT*dG*d[5mC]*dT*dT*d[5mC]*kT*k[5mC]*kT) [compound 799191],% Inhibition,[1],26%
799192 (antisense kT*kT*kT*d[5mC]*d[5mC]*dA*dA*dT*dG*dA*dG*dA*dA*kT*kG*k[5mC]) [compound 799192],% Inhibition,[1],60%
799193 (antisense kT*kA*kA*dA*dT*dT*dT*d[5mC]*d[5mC]*dA*dA*dT*dG*kA*kG*kA) [compound 799193],% Inhibition,[1],43%
799194 (antisense kT*kG*k[5mC]*dT*dA*dA*dA*dT*dT*dT*d[5mC]*d[5mC]*dA*kA*kT*kG) [compound 799194],% Inhibition,[1],42%
799195 (antisense k[5mC]*kA*kA*dT*dG*d[5mC]*dT*dA*dA*dA*dT*dT*dT*k[5mC]*k[5mC]*kA) [compound 799195],% Inhibition,[1],43%
799196 (antisense kG*k[5mC]*kA*d[5mC]*dT*dA*d[5mC]*dA*dA*dT*dG*d[5mC]*dT*kA*kA*kA) [compound 799196],% Inhibition,[1],47%
799197 (antisense k[5mC]*kT*k[5mC]*dA*dA*dA*dG*d[5mC]*dA*d[5mC]*dT*dA*d[5mC]*kA*kA*kT) [compound 799197],% inhibition of SMAD7 mRNA expression,[1],34%
799198 (antisense kG*kT*k[5mC]*d[5mC]*dT*dT*dT*d[5mC]*dT*d[5mC]*dT*d[5mC]*dT*k[5mC]*kA*kA) [compound 799198],% inhibition of SMAD7 mRNA expression,[1],17%
799199 (antisense kG*kG*kA*dG*dT*d[5mC]*d[5mC]*dT*dT*dT*d[5mC]*dT*d[5mC]*kT*k[5mC]*kT) [compound 799199],% inhibition of SMAD7 mRNA expression,[1],24%
799200 (antisense kT*k[5mC]*kA*dG*dG*dA*dG*dT*d[5mC]*d[5mC]*dT*dT*dT*k[5mC]*kT*k[5mC]) [compound 799200],% inhibition of SMAD7 mRNA expression,[1],69%
799201 (antisense kT*kT*kT*dT*d[5mC]*dA*dG*dG*dA*dG*dT*d[5mC]*d[5mC]*kT*kT*kT) [compound 799201],% inhibition of SMAD7 mRNA expression,[1],38%
799202 (antisense kT*kT*kT*dT*dT*dT*dT*d[5mC]*dA*dG*dG*dA*dG*kT*k[5mC]*k[5mC]) [compound 799202],% inhibition of SMAD7 mRNA expression,[1],33%
799203 (antisense kG*kG*kT*dT*dT*dT*dT*dT*dT*dT*d[5mC]*dA*dG*kG*kA*kG) [compound 799203],% inhibition of SMAD7 mRNA expression,[1],56%
799204 (antisense k[5mC]*kT*k[5mC]*dA*dG*dG*dT*dT*dT*dT*dT*dT*dT*kT*k[5mC]*kA) [compound 799204],% inhibition of SMAD7 mRNA expression,[1],36%
799205 (antisense kT*kA*kA*dA*dT*d[5mC]*dT*d[5mC]*dA*dG*dG*dT*dT*kT*kT*kT) [compound 799205],% inhibition of SMAD7 mRNA expression,[1],54%
799206 (kT*kA*kT*dA*dT*dT*dT*dA*d[5mC]*dA*dA*dG*dT*kA*kA*kT; antisense) [compound 799206],% Inhibition,[1],0%
799207 (k[5mC]*kT*kT*dT*dA*dT*dA*dT*dT*dT*dA*d[5mC]*dA*kA*kG*kT; antisense) [compound 799207],% Inhibition,[1],0%
799208 (kT*kG*kA*dT*dG*d[5mC]*dT*dT*dA*dT*dA*dA*dA*kA*k[5mC]*kG; antisense) [compound 799208],% Inhibition,[1],15%
799209 (kT*kA*kA*dT*dG*dA*dT*dG*d[5mC]*dT*dT*dA*dT*kA*kA*kA; antisense) [compound 799209],% Inhibition,[1],14%
799210 (kT*kA*kA*dA*dT*dA*dA*dT*dG*dA*dT*dG*d[5mC]*kT*kT*kA; antisense) [compound 799210],% Inhibition,[1],10%
799211 (kA*k[5mC]*kA*dT*dA*dA*dA*dT*dA*dA*dT*dG*dA*kT*kG*k[5mC]; antisense) [compound 799211],% Inhibition,[1],0%
799212 (kT*kT*kA*dT*dA*d[5mC]*dA*d[5mC]*dA*dT*dT*dG*d[5mC]*kA*k[5mC]*kA; antisense) [compound 799212],% Inhibition,[1],35%
799213 (kT*kG*kT*dT*dT*dA*dT*dA*d[5mC]*dA*d[5mC]*dA*dT*kT*kG*k[5mC]; antisense) [compound 799213],% inhibition of SMAD7 mRNA expression,[1],42%
799214 (kT*kT*k[5mC]*dT*dT*dG*dT*dT*dT*dA*dT*dA*d[5mC]*kA*k[5mC]*kA; antisense) [compound 799214],% inhibition of SMAD7 mRNA expression,[1],46%
799215 (kA*kG*k[5mC]*dA*dA*dA*dG*dT*dG*d[5mC]*dA*dT*d[5mC]*kT*kT*kT; antisense) [compound 799215],% inhibition of SMAD7 mRNA expression,[1],0%
799216 (kT*kA*kT*dT*dA*dA*dA*dG*d[5mC]*dA*dA*dA*dG*kT*kG*k[5mC]; antisense) [compound 799216],% inhibition of SMAD7 mRNA expression,[1],49%
799217 (kG*kT*kT*dA*dT*dT*dT*dG*d[5mC]*dA*dT*dT*dT*kA*kT*kA; antisense) [compound 799217],% inhibition of SMAD7 mRNA expression,[1],0%
799218 (k[5mC]*kA*kT*dT*dT*dG*dT*dT*dA*dT*dT*dT*dG*k[5mC]*kA*kT; antisense) [compound 799218],% inhibition of SMAD7 mRNA expression,[1],0%
799219 (kT*kG*kG*d[5mC]*dA*dT*dT*dT*dG*dT*dT*dA*dT*kT*kT*kG; antisense) [compound 799219],% Inhibition,[1],0%
799220 (kA*kA*kT*dT*dT*dG*dG*d[5mC]*dA*dT*dT*dT*dG*kT*kT*kA; antisense) [compound 799220],% Inhibition,[1],0%
799221 (kT*kT*kT*dA*dA*dT*dT*dT*dG*dG*d[5mC]*dA*dT*kT*kT*kG; antisense) [compound 799221],% Inhibition,[1],0%
799222 (k[5mC]*kT*kT*dT*dT*dT*dT*dA*dA*dT*dT*dT*dG*kG*k[5mC]*kA; antisense) [compound 799222],% Inhibition,[1],0%
799223 (kA*kT*k[5mC]*dT*dT*dG*dT*dG*dT*dT*dT*dA*dT*k[5mC]*kT*kT; antisense) [compound 799223],% Inhibition,[1],0%
799224 (k[5mC]*k[5mC]*kA*dA*dT*d[5mC]*dT*dT*dG*dT*dG*dT*dT*kT*kA*kT; antisense) [compound 799224],% Inhibition,[1],3%
799225 (kA*k[5mC]*kA*d[5mC]*d[5mC]*dA*dA*dT*d[5mC]*dT*dT*dG*dT*kG*kT*kT; antisense) [compound 799225],% Inhibition,[1],4%
799226 (kA*kA*kA*dA*d[5mC]*dA*d[5mC]*d[5mC]*dA*dA*dT*d[5mC]*dT*kT*kG*kT; antisense) [compound 799226],% Inhibition,[1],15%
799227 (kG*kA*kA*dA*dA*dA*dA*dA*d[5mC]*dA*d[5mC]*d[5mC]*dA*kA*kT*k[5mC]; antisense) [compound 799227],% Inhibition,[1],2%
799228 (k[5mC]*kA*kT*dA*dG*dA*dA*dA*dA*dA*dA*dA*d[5mC]*kA*k[5mC]*k[5mC]; antisense) [compound 799228],% Inhibition,[1],4%
799229 (kA*kA*k[5mC]*dA*d[5mC]*d[5mC]*d[5mC]*dA*dT*dA*dG*dA*dA*kA*kA*kA; antisense) [compound 799229],% inhibition of SMAD7 mRNA expression,[1],22%
799230 (kG*kG*kT*dG*dA*dT*dA*dA*d[5mC]*dA*d[5mC]*d[5mC]*d[5mC]*kA*kT*kA; antisense) [compound 799230],% inhibition of SMAD7 mRNA expression,[1],14%
799231 (kG*k[5mC]*kT*dA*dG*dG*dT*dG*dA*dT*dA*dA*d[5mC]*kA*k[5mC]*k[5mC]; antisense) [compound 799231],% inhibition of SMAD7 mRNA expression,[1],8%
799232 (kT*k[5mC]*kA*dG*d[5mC]*dT*dA*dG*dG*dT*dG*dA*dT*kA*kA*k[5mC]; antisense) [compound 799232],% inhibition of SMAD7 mRNA expression,[1],13%
799233 (k[5mC]*kA*kT*dT*d[5mC]*dA*dG*d[5mC]*dT*dA*dG*dG*dT*kG*kA*kT; antisense) [compound 799233],% inhibition of SMAD7 mRNA expression,[1],28%
799234 (kA*kA*kA*d[5mC]*dA*dT*dT*d[5mC]*dA*dG*d[5mC]*dT*dA*kG*kG*kT; antisense) [compound 799234],% inhibition of SMAD7 mRNA expression,[1],13%
799235 (kG*kA*kA*dA*dA*dA*d[5mC]*dA*dT*dT*d[5mC]*dA*dG*k[5mC]*kT*kA; antisense) [compound 799235],% inhibition of SMAD7 mRNA expression,[1],24%
799236 (kT*kA*kA*dA*d[5mC]*dT*d[5mC]*d[5mC]*dT*dT*dT*dA*dG*kA*kA*kA; antisense) [compound 799236],% Inhibition,[1],45%
799237 (kA*k[5mC]*kA*dT*dA*dA*dA*d[5mC]*dT*d[5mC]*d[5mC]*dT*dT*kT*kA*kG; antisense) [compound 799237],% Inhibition,[1],9%
799238 (kA*kA*kT*dG*dG*dA*dA*d[5mC]*dA*dT*dA*dA*dA*k[5mC]*kT*k[5mC]; antisense) [compound 799238],% Inhibition,[1],17%
799239 (kT*k[5mC]*kA*dG*dT*dT*dG*dG*dT*dT*dT*dG*dA*kG*kA*kA; antisense) [compound 799239],% inhibition of SMAD7 mRNA expression,[2],16%
799240 (kA*kT*k[5mC]*dT*dG*dG*dA*d[5mC]*dA*dG*dT*d[5mC]*dA*kG*kT*kT; antisense) [compound 799240],% inhibition of SMAD7 mRNA expression,[2],45%
799241 (kA*kT*kT*d[5mC]*dT*d[5mC]*d[5mC]*dG*dT*dA*dT*dT*dT*kA*k[5mC]*kT; antisense) [compound 799241],% Inhibition,"electroporation with 10,000 nM antisense oligonucleotide, SMAD7 mRNA by RT-PCR (RTS5062), relative to untreated control cells",16%
799242 (k[5mC]*kG*kT*dG*dA*dT*dT*d[5mC]*dT*d[5mC]*d[5mC]*dG*dT*kA*kT*kT; antisense) [compound 799242],% inhibition of SMAD7 mRNA expression,[1],0%
799243 (k[5mC]*k[5mC]*kA*d[5mC]*dT*dG*dG*dT*dG*dT*dT*d[5mC]*dG*kA*k[5mC]*kG; antisense) [compound 799243],% inhibition of SMAD7 mRNA expression,[1],19%
799244 (kG*kG*kG*d[5mC]*d[5mC]*dA*d[5mC]*dT*dG*dG*dT*dG*dT*kT*k[5mC]*kG; antisense) [compound 799244],% inhibition of SMAD7 mRNA expression,[1],8%
